Values after ≈ are worked out from the molar mass of the structure shown. Read-outs that look alike come from different tables or passages of the source.
Columns and labels:
[1] = tested on: Methicillin-resistant Staphylococcus aureus; assay: MIC, microdilution method in 96-well plates; assay type: cell-based; settings: read-out: MIC Methicillin-resistant Staphylococcus aureus
Experimental: (§1) Minimum inhibitory concentrations (MICs) were determined using the microdilution method in 96-well format plates. Each of the compounds of Examples was dissolved in dimethyl sulfoxide to a concentration of 2 mg/mL and stored at 4° C. until used. They were diluted in Mueller-Hinton Broth (MHB) and used for MIC determination. The range of concentrations tested was […] final concentration using a two-fold dilution system. Plates were incubated at 37° C. and MIC were recorded after 24 hours of incubation for bacteria.
(§2) Linezolid and vancomycin were used as standard antibiotics, respectively.

[2] = tested on: Streptococcus agalactiae; assay: MIC, microdilution method in 96-well plates; assay type: cell-based; settings: read-out: MIC Streptococcus agalactiae
Experimental: as §1, §2

[3] = tested on: Streptococcus pneumoniae; assay: MIC, microdilution method in 96-well plates; assay type: cell-based; settings: read-out: MIC Streptococcus pneumoniae
Experimental: as §1, §2

[4] = tested on: Streptococcus pyogenes; assay: MIC, microdilution method in 96-well plates; assay type: cell-based; settings: read-out: MIC Streptococcus pyogenes
Experimental: as §1, §2

[5] = tested on: Vancomycin-resistant Enterococcus faecalis; assay: MIC, microdilution method in 96-well plates; assay type: cell-based; settings: read-out: MIC Vancomycin-resistant Enterococcus faecalis
Experimental: as §1, §2

[6] = Acute toxicity study in mice; settings: male, mouse, in vivo, 4000 mg/kg; ICR mice (♂, 4 weeks), oral 4,000 mg/kg dose, observed for 14 days
Experimental: The acute toxicity of the compounds of Example 7, 13, 18 and 47 were tested using several groups of ICR mice each of 6 mice.

[7] = Mueller-Hinton Broth, 37° C., 24 hours of incubation

Structure (SMILES) | MIC [1, 7] [µg/mL] | MIC [2, 7] [µg/mL] | MIC [3, 7] [µg/mL] | MIC [4, 7] [µg/mL] | MIC [5, 7] [µg/mL] | LD50 at 14 days [6] [mg/kg] | MIC ([1]; 24 h) [µg/mL] | MIC ([2]; 24 h) [µg/mL] | MIC ([3]; 24 h) [µg/mL] | MIC ([4]; 24 h) [µg/mL] | MIC ([5]; 24 h) [µg/mL]
COc1ccc(C(=O)NC2CCN(C(=O)[C@@H](NC(=O)[C@H](CC3CCCC3)CN(O)C=O)C(C)(C)C)CC2)cc1 [Example 39, N-(1-{(S)-2-[(R)-2-Cyclopentylmethyl-3-(formyl-hydroxy-amino)-propionylamino]-3,3-dimethyl-butyryl}-piperidin-4-yl)-4-methoxy-benzamide] | 12.5 (≈ 22.9 µM) | 0.2 (≈ 0.367 µM) | 3.1 (≈ 5.69 µM) | 0.2 (≈ 0.367 µM) | 6.3 (≈ 11.6 µM) |  |  |  |  |  | 
Cc1ccc(C(=O)NC2CCN(C(=O)[C@@H](NC(=O)[C@@H](CC(=O)NO)CC3CCCC3)C(C)(C)C)CC2)cc1 [Example 20, (R)-2-Cyclopentylmethyl-N^1-{(S)-2,2-dimethyl-1-[4-(4-methyl-benzoylamino)-piperidine-1-carbonyl]-propyl}-N^4-hydroxy-succinamide] | 25 (≈ 47.3 µM) | 0.4 (≈ 0.757 µM) | 0.8 (≈ 1.51 µM) | 0.4 (≈ 0.757 µM) | 12.5 (≈ 23.6 µM) |  |  |  |  |  | 
CC(C)(C)[C@H](NC(=O)[C@@H](CC(=O)NO)CC1CCCC1)C(=O)N1CCC(NC(=O)Cc2ccccc2)CC1 [Example 10, (R)-2-Cyclopentylmethyl-N^1-[(S)-2,2-dimethyl-1-(4-phenylacetylamino-piperidine-1-carbonyl)-propyl]-N^4-hydroxy-succinamide] | 50 (≈ 94.6 µM) | 0.2 (≈ 0.378 µM) | 50 (≈ 94.6 µM) | 0.8 (≈ 1.51 µM) | 50 (≈ 94.6 µM) |  |  |  |  |  | 
CC(C)(C)[C@H](NC(=O)[C@H](CC1CCCC1)CN(O)C=O)C(=O)N1CCC(NC(=O)c2ccc(C#N)cc2)CC1 [Example 29, 4-Cyano-N-(1-{(S)-2-[(R)-2-cyclopentylmethyl-3-(formyl-hydroxy-amino)-propionylamino]-3,3-dimethyl-butyryl}-piperidin-4-yl)benzamide] | 3.1 (≈ 5.74 µM) | 0.1 (≈ 0.185 µM) | 1.6 (≈ 2.96 µM) | 0.1 (≈ 0.185 µM) | 3.1 (≈ 5.74 µM) |  |  |  |  |  | 
CC(C)(C)[C@H](NC(=O)[C@@H](CC(=O)NO)CC1CCCC1)C(=O)N1CCC(NC(=O)c2ccc(F)cc2)CC1 [Example 15, (R)-2-Cyclopentylmethyl-N^1-{(S)-1-[4-(4-fluoro-benzoylamino)-piperidine-1-carbonyl]-2,2-dimethyl-propyl}-N^4-hydroxy-succinamide] | 6.3 (≈ 11.8 µM) | 0.2 (≈ 0.375 µM) | 6.3 (≈ 11.8 µM) | 0.2 (≈ 0.375 µM) | 6.3 (≈ 11.8 µM) |  |  |  |  |  | 
CC(C)(C)[C@H](NC(=O)[C@H](CC1CCCC1)CN(O)C=O)C(=O)N1CCC(NC(=O)c2ccc(C(F)(F)F)cc2)CC1 [Example 28, N-(1-{(S)-2-[(R)-2-Cyclopentylmethyl-3-(formyl-hydroxy-amino)-propionylamino]-3,3-dimethyl-4-butyryl}-piperidin-4-yl)-4-trifluoromethyl-benzamide] | 3.1 (≈ 5.32 µM) | 0.1 (≈ 0.172 µM) | 1.6 (≈ 2.75 µM) | 3.1 (≈ 5.32 µM) | 6.3 (≈ 10.8 µM) |  |  |  |  |  | 
CC(C)(C)[C@H](NC(=O)[C@H](CC1CCCC1)CN(O)C=O)C(=O)N1CCC(NC(=O)c2cc(F)c(F)cc2F)CC1 [Example 44, N-(1-{(S)-2-[(R)-2-Cyclopentylmethyl-3-(formyl-hydroxy-amino)-propionylamino]-3,3-dimethyl-butyryl}-piperidin-4-yl)-2,4,5-trifluoro-benzamide] | 3.1 (≈ 5.45 µM) | 0.2 (≈ 0.352 µM) | 1.6 (≈ 2.81 µM) | 0.2 (≈ 0.352 µM) | 3.1 (≈ 5.45 µM) |  |  |  |  |  | 
CC(C)(C)[C@H](NC(=O)[C@@H](CC(=O)NO)CC1CCCC1)C(=O)N1CCC(NC(=O)c2ccccc2)CC1 [Example 8, (R)-N^1-[(S)-1-(4-Benzoylamino-piperidine-1-carbonyl)-2,2-dimethyl-propyl]-2-cyclopentylmethyl-N^4-hydroxy-succinamide] | 12.5 (≈ 24.3 µM) | 1.6 (≈ 3.11 µM) | 6.3 (≈ 12.2 µM) | 1.6 (≈ 3.11 µM) | 25 (≈ 48.6 µM) |  |  |  |  |  | 
CC(C)C[C@H](CC(=O)NO)C(=O)N[C@H](C(=O)N1CCC(NC(=O)Cc2ccccc2)CC1)C(C)(C)C [Example 7, (R)-N^1-[(S)-2,2-Dimethyl-1-(4-phenylacetylamino-piperidine-1-carbonyl)-propyl]-N^4-hydroxy-2-isobutyl-succinamide] |  |  |  |  |  | > 4000 |  |  |  |  | 
CCCC[C@H](CC(=O)NO)C(=O)N[C@H](C(=O)N1CCC(NC(=O)c2ccc(C)cc2)CC1)C(C)(C)C [Example 18, (R)-2-Butyl-N^1-{(S)-2,2-dimethyl-1-[4-(4-methyl-benzoylamino)-piperidine-1-carbonyl]-propyl}-N^4-hydroxy-succinamide] |  |  |  |  |  | > 4000 |  |  |  |  | 
CC(C)(C)[C@H](NC(=O)[C@@H](CC(=O)NO)CC1CCCC1)C(=O)N1CCC(NC(=O)c2ccc(C(F)(F)F)cc2)CC1 [Example 13, (R)-2-Cyclopentylmethyl-N^1-{(S)-2,2-dimethyl-1-[4-(4-trifluoromethyl-benzoylamino)-piperidine-1-carbonyl]-propyl}-N^4-hydroxy-succinamide] | 12.5 (≈ 21.5 µM) | 0.2 (≈ 0.343 µM) | 3.1 (≈ 5.32 µM) | 0.4 (≈ 0.687 µM) | 6.3 (≈ 10.8 µM) | > 4000 |  |  |  |  | 
Cc1ccc(NC(=O)NC2CCN(C(=O)[C@@H](NC(=O)[C@H](CC3CCCC3)CN(O)C=O)C(C)(C)C)CC2)cc1 [Example 47, (R)-2-Cyclopentylmethyl-N-{(S)-2,2-dimethyl-1-[4-(3-p-tolyl-ureido)-piperidine-1-carbonyl]-propyl}-3-(formyl-hydroxy-amino)-propionamide] |  |  |  |  |  | > 4000 |  |  |  |  | 
CC(C)(C)[C@H](NC(=O)[C@H](CC1CCCC1)CN(O)C=O)C(=O)N1CCC(NS(=O)(=O)c2ccc(C(F)(F)F)cc2)CC1 [Example 50, (R)-2-Cyclopentylmethyl-N-{(S)-2,2-dimethyl-1-[4-(4-trifluoromethyl-benzenesulfonylamino)-piperidine-1-carbonyl]-propyl}-3-(formyl-hydroxy-amino)-propionamide] | 6.3 (≈ 10.2 µM) | 0.4 (≈ 0.646 µM) | 1.6 (≈ 2.59 µM) | 0.4 (≈ 0.646 µM) | 3.1 (≈ 5.01 µM) |  |  |  |  |  | 
CN[C@H](CC(C)C)C(=O)N[C@H]1C(=O)N[C@@H](CC(N)=O)C(=O)N[C@H]2C(=O)N[C@H]3C(=O)N[C@H](C(=O)N[C@H](C(=O)O)c4cc(O)cc(O)c4-c4cc3ccc4O)[C@H](O)c3ccc(c(Cl)c3)Oc3cc2cc(c3O[C@@H]2O[C@H](CO)[C@@H](O)[C@H](O)[C@H]2O[C@H]2C[C@](C)(N)[C@H](O)[C@H](C)O2)Oc2ccc(cc2Cl)[C@H]1O [Vancomycin, reference compound] |  |  |  |  |  |  | 3.1 (≈ 2.14 µM) | 1.6 (≈ 1.1 µM) | 0.8 (≈ 0.552 µM) | 0.8 (≈ 0.552 µM) | > 100
CC(C)(C)[C@H](NC(=O)[C@H](CC1CCCC1)CN(O)C=O)C(=O)N1CCC(NC(=O)c2ccccc2)CC1 [Example 25, N-(1-{(S)-2-[(R)-2-Cyclopentylmethyl-3-(formyl-hydroxy-amino)-propionylamino]-3,3dimethyl-butyryl}-piperidin-4-yl)-benzamide] | 12.5 (≈ 24.3 µM) | 0.1 (≈ 0.194 µM) | 6.3 (≈ 12.2 µM) | 0.4 (≈ 0.777 µM) | 6.3 (≈ 12.2 µM) |  |  |  |  |  | 
Cc1ccc(C(=O)NC2CCN(C(=O)[C@@H](NC(=O)[C@H](CC3CCCC3)CN(O)C=O)C(C)(C)C)CC2)cc1 [Example 38, N-(1-[(S)-2-[(R)-2-Cyclopentylmethyl-3-(formyl-hydroxy-amino)-propionylamino]-3,3-dimethyl-butyryl}-piperidin-4-yl)-4-methyl-benzamide] | 6.3 (≈ 11.9 µM) | 0.1 (≈ 0.189 µM) | 1.6 (≈ 3.03 µM) | 3.1 (≈ 5.86 µM) | 3.1 (≈ 5.86 µM) |  |  |  |  |  | 
CC(C)(C)[C@H](NC(=O)[C@H](CC1CCCC1)CN(O)C=O)C(=O)N1CCC(NC(=O)Nc2ccc(C(F)(F)F)cc2)CC1 [Example 48, (R)-2-Cyclopentylmethyl-N-((S)-2,2-dimethyl-1-{4-[3-(4-trifluoromethyl-phenyl)-ureido)-piperidine-1-carbonyl}-propyl)-3-(formyl-hydroxy-amino)-propionamide] | 6.3 (≈ 10.5 µM) | 0.2 (≈ 0.335 µM) | 1.6 (≈ 2.68 µM) | 0.2 (≈ 0.335 µM) | 3.1 (≈ 5.19 µM) |  |  |  |  |  | 
CC(=O)NC[C@H]1CN(c2ccc(N3CCOCC3)c(F)c2)C(=O)O1 [Linezolid, reference compound] | 1.6 (≈ 4.74 µM) | 1.6 (≈ 4.74 µM) | 0.8 (≈ 2.37 µM) | 0.8 (≈ 2.37 µM) | 0.8 (≈ 2.37 µM) |  |  |  |  |  | 
CC(C)(C)[C@H](NC(=O)[C@H](CC1CCCC1)CN(O)C=O)C(=O)N1CCC(NC(=O)c2ccc(F)cc2)CC1 [Example 30, N-(1-{(S)-2-[(R)-2-Cyclopentylmethyl-3-(formyl-hydroxy-amino)-propionylamino]-3,3-dimethyl-butyryl}-piperidin-4-yl)-4-fluoro-benzamide] | 6.3 (≈ 11.8 µM) | 0.2 (≈ 0.375 µM) | 1.6 (≈ 3 µM) | 0.2 (≈ 0.375 µM) | 6.3 (≈ 11.8 µM) |  |  |  |  |  | 
CC(C)[C@H](NC(=O)[C@H](CC1CCCC1)CN(O)C=O)C(=O)N1CCC(NC(=O)c2ccc(C#N)cc2)CC1 [Example 41, 4-Cyano-N-(1-{(S)-2-[(R)-2-cyclopentylmethyl-3-(formyl-hydroxy-amino)-propionylamino]-3-methyl-butyryl}-piperidin-4-yl)benzamide] | 6.3 (≈ 12 µM) | 0.4 (≈ 0.761 µM) | 1.6 (≈ 3.04 µM) | 0.4 (≈ 0.761 µM) | 3.1 (≈ 5.9 µM) |  |  |  |  |  | 
